Measured values taken from US20070167408A1, “NOVEL ALKYL PHOSPHOLIPID DERIVATIVES WITH REDUCED CYTOTOXICITY AND USES THEREOF” (ZENTARIS GmbH, priority 2005, published 2007).
Where two headings read alike, the source gives them in different places.

Assays:
Type in all cases: cell-based
[1] = test system: PC3 (human prostate carcinoma) cells; assay: XTT cytotoxicity assay, PC3 cells; conditions: read-out: PC3 [IC50 (μM)]
Description: (§1) Cytotoxicity of selected compounds of the invention against different mammalian cell lines was assessed as follows.
(§2) Human tumor cell lines KB/HeLa (ATCC CCL17, human cervix carcinoma), PC3 (ATCC CRL1435, human prostate carcinoma) and RKOp21 (human colon adenocarcinoma; Schmidt et al., Oncogene 2000, 19: 2423-2429) cells were used in an automated XTT screening assay for the assessment of cytotoxicity.
(§3) The XTT assay quantifies cellular metabolic activity which correlates with cell viability and cell number. Test compounds (selected compounds of the invention and known substances as controls) are dissolved in culture medium at 600 μM and added to the tumor cells in 10 different concentrations in a semi-logarithmic fashion starting from 100 μM as highest concentration.
(§4) In a second set of experiments employing PC3, RKOp21 and SKOV-3 (ATCC HTB-77, human ovary adenocarcinoma) cells, test and reference compounds were dissolved in 70% Ethanol/30% H2O in a stock concentration of 10 mM and diluted in cell culture medium to yield either 31.6 μM (PC3 and RKOp21) or 100 μM (SKOV-3) final concentration.
(§5) 48 h later cellular metabolic activity of cells treated with test compounds is quantified by measurement of the absorbance at 490 nm (conversion of XTT dye) in comparison to untreated control cells (100% viability).
(§6) KB/HeLa and PC3 cells were cultivated in RPMI 1640 medium (Gibco, Cat. No. 42401-018) supplemented with 10% heat inactivated fetal calf serum (FCS, Biochrom AG, Cat. No. S0115), 2 mM L-glutamine (Gibco, Cat. No. 25030-24) and 2% Penicillin-Streptomycin (PenStrep, Gibco, Cat. No. 15140-122). RKOp21 cells were grown in DMEM+GlutaMAXTM-I medium (Gibco, Cat. No. 61965-026) supplemented with 10% heat inactivated fetal calf serum (FCS, Biochrom AG, Cat. No. S0115), 2 mM L-glutamine (Gibco, Cat. No. 25030-24), 2% Penicillin-Streptomycin (PenStrep, Gibco, Cat. No. 15140-122) and 1% 1M HEPES (Gibco, Cat. No. 15630-056). All cells were cultured at 37° C. in 5% CO2 humidified air.
(§7) On the first day of the experiment cells were harvested from exponential phase cultures by trypsination, counted and plated into 96 well flat-bottom micro titer plates depending on the cell line as listed below:
(§8) After a 24 h recovery to allow the cells to resume exponential growth, the test compounds were diluted immediately prior to use and transferred in 25 μl volume to the wells.
(§9) Following 2 days of continuous drug exposure 50 μl of freshly prepared XTT-PMS solution {2% 0.386 mg/ml PMS (N-Methyl Dibenzopyrazine Methylsulphate; Sigma, Cat. No. P9625) in PBS+98% 1 mg/ml XTT (Sodium 2,3-bis(2-methoxy-4-nitro-5-sulfophenyl)-5-[(phenylamino)carbonyl]-2H-Tetrazolium; Serva, Cat. No. 38450) in RPMI 1640 medium without phenol red} was added to the wells. To measure the proportion of living cells, the cells were incubated for 3 h with XTT-PMS reagent at 37° C., 5% CO2, humidified atmosphere allowing to form the formazan salt. The amount of soluble formazan salt produced by cellular reduction of XTT is quantified by measuring the absorbance at 490 nm using the Biomek® 2000 ELISA plate reader. %-inhibition (cytotoxicity) of each test compound was calculated in relation to untreated control cells. Inhibition curves were generated and IC50 values calculated by using GraphPad Prism.

[2] = test system: KB/HeLa (human cervix carcinoma) cells; assay: XTT cytotoxicity assay, KB/HeLa cells; conditions: read-out: KB/HELA [IC50 (μM)]
Description: as §1, §2, §3, §5, §6, §7, §8, §9

[3] = test system: RKOp21 (human colon adenocarcinoma) cells; assay: XTT cytotoxicity assay, RKOp21 cells; conditions: read-out: RKOp21 [IC50 (μM)]
Description: as §1, §2, §3, §4, §5, §6, §7, §8, §9

[4] = Homo sapiens, PC-3, XTT, 48 h exposure
[5] = Homo sapiens, HeLa, XTT, 48 h exposure
[6] = Homo sapiens, XTT, 48 h exposure

Molecule `CC(C)CCCC(C)C1CCC2C3CCC4CC(OP(=O)([O-])OCC[N+](C)(C)C)CCC4(C)C3CCC12C` (stereo not drawn) [Compound 41] has an IC50 [1, 4] greater than 100 µM, an IC50 [2, 5] greater than 100 µM and an IC50 [3, 6] greater than 100 µM.
`CC(C)CCCC(C)C1CCC2C3CC=C4CC(OP(=O)([O-])OCC[N+](C)(C)C)CCC4(C)C3CCC12C` (stereo not drawn) [Compound 46] showed an IC50 [1, 4] greater than 100 µM, an IC50 [2, 5] greater than 100 µM and an IC50 [3, 6] greater than 100 µM.
`CC(C)CCCC(C)C1CCC2C3=CC=C4CC(OP(=O)([O-])OCC[N+](C)(C)C)CCC4(C)C3CCC21C` (stereo not drawn) [Compound 48] was tested, and the IC50 [1, 4] was greater than 100 µM, the IC50 [2, 5] was greater than 100 µM and the IC50 [3, 6] was greater than 100 µM.
`CCCCC/C=C\C/C=C\CCCCCCCCOP(=O)([O-])OCC[N+](C)(C)C` [Compound 55] was tested, and the IC50 [1, 4] was greater than 100 µM, the IC50 [2, 5] was greater than 100 µM and the IC50 [3, 6] was greater than 100 µM.
With `C[C@H](CCC(=O)O)[C@H]1CCC2[C@@H]3CC[C@@H]4C[C@H](OP(=O)([O-])OCC[N+](C)(C)C)CC[C@]4(C)[C@H]3CC[C@@]21C` (stereo partly drawn) [Compound 59] the IC50 [1, 4] was greater than 100 µM, the IC50 [2, 5] was greater than 100 µM and the IC50 [3, 6] was greater than 100 µM.
For `CCCCCCCCCCCCCCCCOP(=O)(O)OCCN1CCOCC1` [Compound 60], the IC50 [1, 4] was greater than 100 µM, the IC50 [2, 5] was greater than 100 µM and the IC50 [3, 6] was greater than 100 µM.
For `CCCCCCCCCCCCCCCCOP(=O)(O)OCCN1CCCC1` [Compound 63], the IC50 [1, 4] was greater than 100 µM, the IC50 [2, 5] was greater than 100 µM and the IC50 [3, 6] was greater than 100 µM.
`CCCCCCCCCCCCCCCCOP(=O)([O-])OC1C[N+]2(C)CCC1CC2` (stereo not drawn) [Compound 76] was tested, and the IC50 [1, 4] was 25 µM, the IC50 [2, 5] was 11.3 µM and the IC50 [3, 6] was 68.8 µM.
`CCCCCCCC/C=C\CCCCCCCCOP(=O)([O-])OCC[N+](C)(C)CC` [Compound 82] was tested, and the IC50 [1, 4] was 45.6 µM, the IC50 [2, 5] was 37.7 µM and the IC50 [3, 6] was 20.5 µM.
With `CCCCCCCCCCCCCCCCCCCCOP(=O)([O-])OC1CCC[N+](C)(C)CC1` (stereo not drawn) [Compound 86] the IC50 [1, 4] was greater than 100 µM, the IC50 [2, 5] was 75.6 µM and the IC50 [3, 6] was greater than 100 µM.
Work on `CCCCCCCC/C=C\CCCCCCCCOP(=O)([O-])OCC[N+]1(C)CCCC1` [Compound 91] yielded an IC50 [1, 4] of 86.8 µM, an IC50 [2, 5] greater than 100 µM and an IC50 [3, 6] greater than 100 µM.
`CCCCCCCC/C=C\CCCCCCCCOP(=O)([O-])OCC[N+]1(C)CCCCC1` [Compound 97] gave an IC50 [1, 4] of 49.4 µM, an IC50 [2, 5] greater than 100 µM and an IC50 [3, 6] of 89.4 µM.
For `CCCCCCCCCCOCCOCCOP(=O)([O-])OCC[N+](C)(C)C` [Compound 123], the IC50 [1, 4] was 21.8 µM, the IC50 [2, 5] was 39.1 µM and the IC50 [3, 6] was 76.6 µM.
`CCCCCCCC/C=C\CCCCCCCCCCCCOP(=O)([O-])OCC[N+]1(C)CCC(O)CC1` (stereo not drawn) [Compound 133] showed an IC50 [1, 4] of 81.6 µM, an IC50 [2, 5] greater than 100 µM and an IC50 [3, 6] greater than 100 µM.
Work on `CCCCCCCCC#CCCCCCCCCOP(=O)([O-])OCC[N+]1(C)CCCCC1` [Compound 145] yielded an IC50 [1, 4] greater than 100 µM, an IC50 [2, 5] greater than 100 µM and an IC50 [3, 6] greater than 100 µM.
For `CCCCCCCCCCCCCCCCCCOP(=O)([O-])OCc1cccc[n+]1C` [Compound 147], the IC50 [1, 4] was greater than 100 µM, the IC50 [2, 5] was greater than 100 µM and the IC50 [3, 6] was greater than 100 µM.
`CCCCCCCCCCCCCCCCCCOP(=O)([O-])OCC1CC[N+](C)(C)CC1` [Compound 152] gave an IC50 [1, 4] of 23.9 µM, an IC50 [2, 5] of 32.3 µM and an IC50 [3, 6] greater than 100 µM.
`CCCCCCCCCCCCCCCCOP(=O)([O-])OCC1CC[N+](C)(C)CC1` [Compound 153] was tested, and the IC50 [1, 4] was 39.8 µM, the IC50 [2, 5] was 38.2 µM and the IC50 [3, 6] was greater than 100 µM.
`CCCCCCCCCCCCCCCCCCOP(=O)([O-])OCCN1CC[N+](C)(C)CC1` [Compound 154] was tested, and the IC50 [1, 4] was 18.2 µM, the IC50 [2, 5] was 12.6 µM and the IC50 [3, 6] was 77.4 µM.
Molecule `CCCCCCCC/C=C\CCCCCCCCCCCCOP(=O)([O-])OCC[As+](CC)(CC)CC` [Compound 159] has an IC50 ([1]; XTT, 48 h exposure) of 37.7 µM, an IC50 ([2]; XTT, 48 h exposure) greater than 100 µM and an IC50 ([3]; XTT, 48 h exposure) of 21 µM.
With `CCCCCCCC/C=C\CCCCCCCCCCCCOP(=O)([O-])OCCC1=C(C)[N+](C)=CC1` [Compound 172] the IC50 [1, 4] was 29.8 µM, the IC50 [2, 5] was greater than 100 µM and the IC50 [3, 6] was 65.5 µM.
`CCCCCCC1CCC(CCOP(=O)([O-])OCC[N+]2(C)CCCCC2)CC1` (stereo not drawn) [Compound 180] was tested, and the IC50 [1, 4] was greater than 100 µM, the IC50 [2, 5] was greater than 100 µM and the IC50 [3, 6] was greater than 100 µM.
Work on `CCCCCCCC/C=C\CCCCCCCCCCCCOP(=O)([O-])OC1CCC[N+](C)(CCc2ccccc2)CC1` (stereo not drawn) [Compound 185] yielded an IC50 [1, 4] of 30.4 µM, an IC50 [2, 5] greater than 100 µM and an IC50 [3, 6] greater than 100 µM.
`CCCCCCCCCCCCCCCCOP(=O)([O-])OCC[n+]1cccc(C(=O)OCC)c1` [Compound 190] showed an IC50 [1, 4] of 73.3 µM, an IC50 [2, 5] of 100 µM and an IC50 [3, 6] greater than 100 µM.
Work on `CCCCCCCCCCCCCCCCOP(=O)([O-])OC1CC[N+](CC)(CC)CC1` [Compound 200] yielded an IC50 [1, 4] of 34.5 µM, an IC50 [2, 5] of 66.4 µM and an IC50 [3, 6] greater than 100 µM.
In the case of `CCCCCCCC/C=C\CCCCCCCCCCCCOP(=O)([O-])OC1CC[N+](CC)(CC)CC1` [Compound 203], the IC50 [1, 4] is reported as 63.1 µM, the IC50 [2, 5] is reported as greater than 100 µM and the IC50 [3, 6] is reported as greater than 100 µM.
`CCC(C)CC(C)CC(C)CC(C)COP(=O)([O-])OCC[N+](C)(C)C` (stereo not drawn) [Compound 235] showed an IC50 [1, 4] greater than 100 µM, an IC50 [2, 5] greater than 100 µM and an IC50 [3, 6] greater than 100 µM.
Work on `CCCCCCCC/C=C\CCCCCCCCOCCOCCOP(=O)([O-])OC1CC[N+](C)(C)CC1` [Compound 256] yielded an IC50 [1, 4] of 82 µM, an IC50 [2, 5] greater than 100 µM and an IC50 [3, 6] greater than 100 µM.
Molecule `CCC(C)CC(C)CC(C)CC(C)COP(=O)([O-])OC1CC[N+](C)(C)CC1` (stereo not drawn) [Compound 258] has an IC50 [1, 4] greater than 100 µM, an IC50 [2, 5] greater than 100 µM and an IC50 [3, 6] greater than 100 µM.
With `C#CC[N+]1(C)CCC(OP(=O)([O-])OCCCCCCCCCCCCCCCC)CC1` (stereo not drawn) [Compound 262] the IC50 [1, 4] was 31.2 µM, the IC50 [2, 5] was 10.1 µM and the IC50 [3, 6] was greater than 100 µM.
`CCCCCCCC/C=C\CCCCCCCCCCCCOP(=O)([O-])OCC[N+](CC)(CC)CC` [Compound 275] gave an IC50 [1, 4] of 69.2 µM, an IC50 [2, 5] greater than 100 µM and an IC50 [3, 6] of 44.4 µM.
`CCCCCCCC/C=C\CCCCCCCC(=O)OCC(COP(=O)([O-])OCC[As+](C)(C)C)OC(=O)CCCCCCC/C=C\CCCCCCCC` (stereo not drawn) [Compound 311] was tested, and the IC50 ([1]; Homo sapiens, PC-3, 48 h) was greater than 100 µM, the IC50 ([2]; Homo sapiens, HeLa, 48 h) was greater than 100 µM and the IC50 ([3]; Homo sapiens, 48 h) was greater than 100 µM.
